Data: patent publication US6649760B2, “Substituted phenyluracils” (priority 2000, dated 2003)

Assays:
[1] = log P determination by HPLC (reversed-phase C18), EEC Directive 79/831 Annex V.A8; assay type: physicochemical; conditions: reversed-phase C18 HPLC column; a) acidic range: 0.1% aqueous phosphoric acid, acetonitrile, linear gradient 10% to 90% acetonitrile; HPLC C18, 43° C.
Text: (a) Mobile phases for the determination in the acidic range: 0.1% aqueous phosphoric acid, acetonitrile; linear gradient from 10% acetonitrile to 90% acetonitrile—the corresponding test results in Table I are labelled a).
(b) Mobile phases for the determination in the neutral range: 0.01 molar aqueous phosphate buffer solution, acetonitrile; linear gradient from 10% acetonitrile to 90% acetonitrile—the corresponding test results in Table 1 are labelled b).

weeds [2] = experiment: Pre-emergence test (Example A); assay type: in vivo; conditions: soil sprayed 24 hours after sowing, rated after three weeks vs untreated control
Experimental: (§1) Solvent: 5 parts by weight of acetone
(§2) Emulsifier: 1 part by weight of alkylaryl polyglycol ether
(§3) To produce a suitable preparation of active compound, 1 part by weight of active compound is mixed with the stated amount of solvent, the stated amount of emulsifier is added and the concentrate is diluted with water to the desired concentration.
Seeds of the test plants are sown in normal soil. After 24 hours, the soil is sprayed with the preparation of active compound such that the particular amount of active compound desired is applied per unit area. The concentration of active compound in the spray liquor is chosen such that the particular amount of active compound desired is applied in 1000 liters of water per hectare.
After three weeks, the degree of damage to the plants is rated in % damage in comparison to the development of the untreated control. The figures denote:
(§4) 0%=no effect (like untreated control)

weeds [3] = experiment: Post-emergence test (Example B); assay type: in vivo; conditions: test plants of 5-15 cm sprayed, rated after three weeks vs untreated control
Experimental: as §1, §2, §3
Test plants of a height of 5-15 cm are sprayed with the preparation of active compound such that the particular amounts of active compound desired are applied per unit area. The concentration of the spray liquor is chosen such that the particular amounts of active compound desired are applied in 1000 l of water/ha.
After three weeks, the degree of damage to the plants is rated in % damage in comparison to the development of the untreated control.
as §4

Structure (SMILES) | chromatographic logP [1] | activity against weeds (degree of damage to the plants) (weeds [2]) | activity against weeds (degree of damage to the plants) (weeds [3])
O=c1cc(C(F)(F)F)[nH]c(=O)n1-c1cc(Oc2ncccn2)c(Br)cc1F [Example 1, 1-[4-bromo-2-fluoro-5-(pyrimidin-2-yl-oxy)-phenyl]-4-trifluoromethyl-3,6-dihydro-2,6-dioxo-1 (2H)-pyrimidine] | 1.96 | – | –
Cn1c(C(F)(F)F)cc(=O)n(-c2cc(Oc3ncccn3)c(Br)cc2F)c1=O [Example 2, 1-[4-bromo-2-fluoro-5-(pyrimidin-2-yl-oxy)-phenyl]-3-methyl-4-trifluoromethyl-3 ,6-dihydro-2,6-dioxo-1 (2H)-pyrimidine] | 2.47 | very strong activity | very strong activity
